Measured values as given in patent publication US20230277491A1, “PHARMACEUTICAL COMBINATION COMPRISING GLYCOLIC ACID AND L-ALANINE” (priority 2020, published 2023).

Assays:
dopaminergic neurons [1] = assay: Survival of dopaminergic neurons with paraquat 12.5 μM challenge (Example 5, FIGS. 19, 20); assay type: cell-based, mouse; conditions: for number of TH positive neurons normalized to the control treatment: FIG. 19
Procedure: Dopaminergic neurons were isolated and plated at a concentration of 1.000.000 cells/ml (100 μl/well) in a 96 well plate and cultured in medium with one or more of the various factors indicated, as described in the examples below. The survival of dopaminergic neurons in the presence and absence of various agents of the invention, either with or without paraquat challenge, is shown by the number of TH positive neurons normalized to the control treatment.
Dopaminergic neurons were isolated and plated at a concentration of 1.000.000 cells/ml (100 μl/well) in a 96 well plate. After 3-4 hours incubation at 37° C., 20 μl of medium was removed from each well. (VF=80 μl). Changes in medium and start point of the treatment were on the following day in vitro (DIV). The following protocol was employed to assess the survival of dopaminergic neurons in the presence and absence of various agents of the inventive combination, either with or without paraquat challenge. • DIV.1: Change half of medium N2 (40 μl) with fresh medium N2. • DIV.3: Change half of the medium and start with medium (control) or with medium A containing PB (0.15 mM) and TUDCA (0.5 mM), or with Medium A containing GA (normally 1 mM, 3 mM, or 10 mM) or with Medium A containing GA (1 mM or 3 mM) and PB (0.15 mM) or with Medium A containing GA (5 mM) and TUDCA (0.5 mM) or with Medium A containing PB (0.15 mM). Medium A is N2 medium but without FBS and N2-Supplement. • DIV.5: Second round of control or treatment with different treatments. Half of the medium (40 μl) was replaced by fresh medium A with the different agents. • DIV.7: Paraquat 12.5 μM treatment starts alone or in combination with the treatments explained above. Half of the medium (40 μl) was replaced by fresh medium A with the different treatment combinations or without (control). • DIV.9: Second day of treatment with Paraquat (PQ) 12.5 μM in addition to the other treatments as explained above. • DIV.11: Fixation 2% of PFA during 20 min at 37° C. or overnight at 4° C.
The effect of the different treatments on dopaminergic neurons survival upon exposure to paraquat was assessed through of TH+ neurons after treatment. Briefly, neurons were fixed using 2% paraformaldehyde for immunocytochemical analysis after treatment. Dopaminergic TH^+ neurons per well were identified and counted using an inverted fluorescence microscope (Olympus) under a 20× objective.

[2] = human, in vivo
Procedure: Preliminary pharmacokinetic analyses were undertaken in order to determine whether the GA and DL administered to the patients orally were absorbed into the blood stream and into the CSF. […] As can also be observed, DL levels reach 140 mg/L in the blood 1-hour post-administration and are reduced to approx. 20 mg/I after 2- or 3-hours post-administration.
As can be observed in FIG. 9, GA levels are approximately 20 mg/I in the CSF 1-hour post-administration. As can also be observed, DL levels are approximately 5 mg/I in the CSF 1-hour post-administration. 100 mg/kg GA and 100 mg/kg DL was administered in patients to obtain the pharmacokinetic data.

[3] = system: HeLa cells treated with siRNA against PARK-7/DJ-1; assay: Calcium imaging on HeLa cells during mitosis after PARK-7/DJ-1 down-regulation; assay type: cell-based; conditions: PARK-7/DJ-1 down-regulated HeLa cells, 5 mM, FIG. 17
Procedure: HeLa cells were loaded with Fluo-4 AM, a dye used to measure calcium concentration in living cells, as described by the manufacturer and recorded for 4 hours. Graphics show the variations in intracellular calcium concentration during mitosis in WT and cells treated with siRNA against PARK-7/DJ-1 to down-regulate this gene.
HeLa-Kyoto cells stably expressing histone H2B-mCherry and mouse DJ-1 were used. Cells were maintained in DMEM supplemented with 10% fetal bovine serum (FBS), 2 mM GlutaMAX, 100 unit/ml penicillin, 100 μg/ml streptomycin. For esiRNA treatment, cells were plated at a density of 15.000 cells/well in an ibidi 8 well chamber (Cat. no 80826, ibidi, Germany, EU), transfected with different esiRNAs (RLUC as empty vector, hPARK-7 and hKIF11 as positive control) (all esiRNAs were obtained from Eupheria, Germany, EU), and left for 72 hours before performing calcium imaging. esiRNA transfection was performed as follows. esiRNA was diluted in distilled water to a concentration of 20 ng/μl. For each well, two solutions were made: 1. […]
We observed that the Fluo-4 AM dye started to leak out of the cells into the medium after 1.5 hours of imaging. […] Images were analyzed using FIJI Image Analysis Freeware (https://fiji.sc). MFI of the Fluo-4 AM signal within the cell was determined using manually selected ROIs covering the whole cell area for each time-point. […]

[4] = male Wistar rats; cited from earlier work
dopaminergic neurons [5] = conditions: after DJ-1 knock-out or paraquat treatment; cited from earlier work

O=C(O)CO [GA, 2-hydroxyethanoic acid]
number of TH positive neurons normalized to the control treatment (dopaminergic neurons [1]; PQ 12.5 μM + 1 mM GA): 0.65 | number of TH positive neurons normalized to the control treatment (dopaminergic neurons [1]; PQ 12.5 μM + 3 mM GA): 0.71 | survival of dopaminergic neurons (rescue) (dopaminergic neurons [1]; PQ 12.5 μM + 5 mM GA alone): certain rescue | GA dose at which the concentration of GA in the blood is too low [2]: lower than 50 mg/kg | concentration in the CSF [2]: ca. 0.33 mM | concentration in the blood [2]: 2000 µM | concentration in the cerebrospinal fluid relative to blood (lower) [2]: about 1:6 | calcium influx during mitosis [3]: able to rescue this phenotype | kidney findings after administration [4]: formation of hyperoxaluria and calcium oxalate precipitates | survival of dopaminergic neurons (dopaminergic neurons [5]): rescued the survival of dopaminergic neurons
